Source: ChEMBL document CHEMBL5465560, “Selectivity Literature for EUbOPEN Chemogenomic Library” (2024)
Values belong to the compound of their own block, whether it stands above or below them.

Key:
[1] = molecular target: Ephrin type-A receptor 4 (Homo sapiens, UniProt P54764); assay: Selectivity interaction (KinomeScan (DiscoverX)) EUB0000666a EPHA4; conditions: at 10 µM
[2] = molecular target: Leukocyte tyrosine kinase receptor (Homo sapiens, UniProt P29376); assay: Selectivity interaction (SelectScreen profiling (Invitrogen)) EUB0000607a LTK; conditions: at 2 µM
[3] = molecular target: T1, Prostaglandin G/H synthase 2 (Homo sapiens) (UniProt P35354); assay: Selectivity interaction (Panel of kinases, GPCRs, ion channels and transporters (enzymatic assay)) EUB0000266bCl PTGS2
T1 sequence (whole entry): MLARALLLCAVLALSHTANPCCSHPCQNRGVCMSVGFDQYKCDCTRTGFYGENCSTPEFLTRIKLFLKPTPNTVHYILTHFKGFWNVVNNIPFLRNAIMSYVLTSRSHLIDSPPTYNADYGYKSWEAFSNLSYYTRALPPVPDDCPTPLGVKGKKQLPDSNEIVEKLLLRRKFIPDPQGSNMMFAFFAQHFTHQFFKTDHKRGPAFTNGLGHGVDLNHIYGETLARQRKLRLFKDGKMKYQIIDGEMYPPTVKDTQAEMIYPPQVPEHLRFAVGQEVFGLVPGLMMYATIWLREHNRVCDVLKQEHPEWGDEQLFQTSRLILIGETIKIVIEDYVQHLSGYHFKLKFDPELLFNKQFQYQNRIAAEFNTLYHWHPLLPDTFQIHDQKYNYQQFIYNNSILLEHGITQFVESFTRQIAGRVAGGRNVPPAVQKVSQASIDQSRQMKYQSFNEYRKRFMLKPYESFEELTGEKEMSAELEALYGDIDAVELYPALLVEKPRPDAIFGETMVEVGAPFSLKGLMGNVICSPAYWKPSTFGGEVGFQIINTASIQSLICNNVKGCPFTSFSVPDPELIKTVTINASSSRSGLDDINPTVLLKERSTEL

[4] = molecular target: Receptor tyrosine-protein kinase erbB-4 (Homo sapiens, UniProt Q15303); conditions: at 10 µM
Chain of Receptor tyrosine-protein kinase erbB-4 (Q15303 whole entry): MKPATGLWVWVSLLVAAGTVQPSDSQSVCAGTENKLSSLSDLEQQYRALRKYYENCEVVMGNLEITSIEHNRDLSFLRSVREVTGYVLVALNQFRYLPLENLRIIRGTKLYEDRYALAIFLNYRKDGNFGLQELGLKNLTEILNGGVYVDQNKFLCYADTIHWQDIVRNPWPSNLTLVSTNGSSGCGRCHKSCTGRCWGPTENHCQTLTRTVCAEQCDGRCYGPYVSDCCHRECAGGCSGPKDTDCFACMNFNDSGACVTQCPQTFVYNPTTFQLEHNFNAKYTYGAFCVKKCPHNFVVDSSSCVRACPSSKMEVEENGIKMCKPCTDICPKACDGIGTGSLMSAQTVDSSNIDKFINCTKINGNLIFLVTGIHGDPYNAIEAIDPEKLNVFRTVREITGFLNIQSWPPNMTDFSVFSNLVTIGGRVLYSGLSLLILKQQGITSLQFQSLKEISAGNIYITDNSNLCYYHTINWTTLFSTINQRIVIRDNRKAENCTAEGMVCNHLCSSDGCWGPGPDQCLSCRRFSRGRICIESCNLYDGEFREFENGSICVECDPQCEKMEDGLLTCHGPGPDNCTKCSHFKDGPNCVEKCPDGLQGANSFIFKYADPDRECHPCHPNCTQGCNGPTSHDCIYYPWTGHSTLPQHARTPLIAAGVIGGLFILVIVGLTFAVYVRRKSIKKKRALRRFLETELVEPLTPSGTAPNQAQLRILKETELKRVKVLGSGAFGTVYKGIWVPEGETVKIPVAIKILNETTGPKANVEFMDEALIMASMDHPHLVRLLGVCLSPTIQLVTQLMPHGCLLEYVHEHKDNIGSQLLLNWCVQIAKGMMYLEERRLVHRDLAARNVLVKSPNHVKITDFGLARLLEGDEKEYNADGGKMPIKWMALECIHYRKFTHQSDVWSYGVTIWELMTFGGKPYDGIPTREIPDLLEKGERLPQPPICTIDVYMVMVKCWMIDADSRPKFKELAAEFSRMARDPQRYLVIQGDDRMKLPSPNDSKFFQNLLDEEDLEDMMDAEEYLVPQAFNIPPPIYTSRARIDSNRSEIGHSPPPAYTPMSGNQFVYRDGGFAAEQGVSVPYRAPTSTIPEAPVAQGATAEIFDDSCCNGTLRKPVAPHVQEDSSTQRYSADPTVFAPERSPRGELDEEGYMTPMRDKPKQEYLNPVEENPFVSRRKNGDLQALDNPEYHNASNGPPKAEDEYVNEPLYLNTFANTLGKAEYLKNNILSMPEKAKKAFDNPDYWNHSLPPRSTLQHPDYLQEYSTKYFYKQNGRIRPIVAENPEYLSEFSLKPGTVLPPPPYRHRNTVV

[5] = molecular target: Vascular endothelial growth factor receptor 3 (Homo sapiens, UniProt P35916); assay: Selectivity interaction (KinomeScan (DiscoverX)) EUB0000699a FLT4; conditions: at 10 µM
[6] = molecular target: Ribosomal protein S6 kinase alpha-3 (Homo sapiens, UniProt P51812); assay: Selectivity interaction (ActivX KiNativ screen (kinase selectivity in THP-1 cell lysates)) EUB0000639a RPS6KA3; assay type: subcellular; conditions: lysate, at 1 µM
Chain of Ribosomal protein S6 kinase alpha-3 (P51812 whole entry): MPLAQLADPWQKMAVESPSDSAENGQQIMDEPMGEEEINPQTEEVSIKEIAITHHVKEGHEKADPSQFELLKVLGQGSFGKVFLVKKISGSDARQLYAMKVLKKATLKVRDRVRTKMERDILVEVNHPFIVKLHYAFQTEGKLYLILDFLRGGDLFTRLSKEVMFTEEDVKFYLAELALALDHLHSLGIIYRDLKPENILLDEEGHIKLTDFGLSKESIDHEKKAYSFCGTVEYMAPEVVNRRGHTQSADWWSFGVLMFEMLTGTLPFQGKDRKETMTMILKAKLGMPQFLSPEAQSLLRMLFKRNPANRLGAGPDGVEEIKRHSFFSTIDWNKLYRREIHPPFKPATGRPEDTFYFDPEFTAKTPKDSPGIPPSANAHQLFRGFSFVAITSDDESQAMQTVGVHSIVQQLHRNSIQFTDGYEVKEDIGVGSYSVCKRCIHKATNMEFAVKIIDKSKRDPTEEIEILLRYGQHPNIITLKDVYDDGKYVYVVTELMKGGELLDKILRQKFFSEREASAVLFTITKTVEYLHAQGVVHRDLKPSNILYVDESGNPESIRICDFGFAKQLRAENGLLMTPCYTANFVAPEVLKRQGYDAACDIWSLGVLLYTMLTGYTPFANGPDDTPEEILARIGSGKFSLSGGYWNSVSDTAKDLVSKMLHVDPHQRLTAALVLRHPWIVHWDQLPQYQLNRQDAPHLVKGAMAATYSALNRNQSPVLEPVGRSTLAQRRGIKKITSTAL

[7] = molecular target: Myosin-IIIa (Homo sapiens) (UniProt Q8NEV4); assay: Selectivity interaction (KinomeScan (DiscoverX)) EUB0000595a MYO3A; conditions: at 10 µM
[8] = molecular target: T2, Tyrosine-protein kinase JAK3 (Homo sapiens) (UniProt P52333); assay: Selectivity interaction (Ambit KINOMEscan and KiNATiv profiling in Jurkat cells) EUB0000090b JAK3; assay type: cell-based; conditions: at 1 µM
T2 sequence (whole entry): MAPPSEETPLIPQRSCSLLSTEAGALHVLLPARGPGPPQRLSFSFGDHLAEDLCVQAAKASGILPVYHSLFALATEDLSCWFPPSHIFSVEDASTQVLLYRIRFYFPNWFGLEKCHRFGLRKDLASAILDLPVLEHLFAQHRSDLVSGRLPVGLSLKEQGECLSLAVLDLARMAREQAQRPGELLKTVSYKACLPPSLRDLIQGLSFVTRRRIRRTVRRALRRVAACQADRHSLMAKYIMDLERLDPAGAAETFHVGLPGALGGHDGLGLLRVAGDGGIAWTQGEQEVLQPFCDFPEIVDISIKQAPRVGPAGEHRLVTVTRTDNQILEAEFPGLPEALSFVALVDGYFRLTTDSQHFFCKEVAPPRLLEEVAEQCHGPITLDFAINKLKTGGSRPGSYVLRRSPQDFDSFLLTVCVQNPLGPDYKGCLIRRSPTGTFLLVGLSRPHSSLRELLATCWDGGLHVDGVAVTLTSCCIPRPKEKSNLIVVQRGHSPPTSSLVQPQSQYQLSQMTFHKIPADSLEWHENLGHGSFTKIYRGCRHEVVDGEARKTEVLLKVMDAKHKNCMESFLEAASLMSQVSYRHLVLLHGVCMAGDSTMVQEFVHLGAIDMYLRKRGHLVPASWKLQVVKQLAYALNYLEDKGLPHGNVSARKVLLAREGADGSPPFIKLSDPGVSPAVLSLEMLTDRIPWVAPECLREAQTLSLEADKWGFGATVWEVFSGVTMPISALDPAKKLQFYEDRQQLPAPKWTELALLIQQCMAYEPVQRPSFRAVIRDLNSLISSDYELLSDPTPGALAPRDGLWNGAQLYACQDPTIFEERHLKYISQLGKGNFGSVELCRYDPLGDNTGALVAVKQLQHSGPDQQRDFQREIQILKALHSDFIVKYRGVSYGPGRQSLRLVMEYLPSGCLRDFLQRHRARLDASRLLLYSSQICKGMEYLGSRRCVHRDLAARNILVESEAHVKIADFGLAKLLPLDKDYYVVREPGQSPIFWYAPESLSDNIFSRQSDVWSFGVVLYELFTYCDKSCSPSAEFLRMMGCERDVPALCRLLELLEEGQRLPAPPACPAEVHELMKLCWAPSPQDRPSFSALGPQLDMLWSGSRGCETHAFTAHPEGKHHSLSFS

[9] = molecular target: Vascular endothelial growth factor receptor 2 (Homo sapiens, UniProt P35968); assay: Selectivity interaction (Ambit KINOMEscan and KiNATiv profiling in Jurkat cells) EUB0000090b KDR; assay type: cell-based; conditions: at 1 µM
Chain of Vascular endothelial growth factor receptor 2 (P35968 whole entry): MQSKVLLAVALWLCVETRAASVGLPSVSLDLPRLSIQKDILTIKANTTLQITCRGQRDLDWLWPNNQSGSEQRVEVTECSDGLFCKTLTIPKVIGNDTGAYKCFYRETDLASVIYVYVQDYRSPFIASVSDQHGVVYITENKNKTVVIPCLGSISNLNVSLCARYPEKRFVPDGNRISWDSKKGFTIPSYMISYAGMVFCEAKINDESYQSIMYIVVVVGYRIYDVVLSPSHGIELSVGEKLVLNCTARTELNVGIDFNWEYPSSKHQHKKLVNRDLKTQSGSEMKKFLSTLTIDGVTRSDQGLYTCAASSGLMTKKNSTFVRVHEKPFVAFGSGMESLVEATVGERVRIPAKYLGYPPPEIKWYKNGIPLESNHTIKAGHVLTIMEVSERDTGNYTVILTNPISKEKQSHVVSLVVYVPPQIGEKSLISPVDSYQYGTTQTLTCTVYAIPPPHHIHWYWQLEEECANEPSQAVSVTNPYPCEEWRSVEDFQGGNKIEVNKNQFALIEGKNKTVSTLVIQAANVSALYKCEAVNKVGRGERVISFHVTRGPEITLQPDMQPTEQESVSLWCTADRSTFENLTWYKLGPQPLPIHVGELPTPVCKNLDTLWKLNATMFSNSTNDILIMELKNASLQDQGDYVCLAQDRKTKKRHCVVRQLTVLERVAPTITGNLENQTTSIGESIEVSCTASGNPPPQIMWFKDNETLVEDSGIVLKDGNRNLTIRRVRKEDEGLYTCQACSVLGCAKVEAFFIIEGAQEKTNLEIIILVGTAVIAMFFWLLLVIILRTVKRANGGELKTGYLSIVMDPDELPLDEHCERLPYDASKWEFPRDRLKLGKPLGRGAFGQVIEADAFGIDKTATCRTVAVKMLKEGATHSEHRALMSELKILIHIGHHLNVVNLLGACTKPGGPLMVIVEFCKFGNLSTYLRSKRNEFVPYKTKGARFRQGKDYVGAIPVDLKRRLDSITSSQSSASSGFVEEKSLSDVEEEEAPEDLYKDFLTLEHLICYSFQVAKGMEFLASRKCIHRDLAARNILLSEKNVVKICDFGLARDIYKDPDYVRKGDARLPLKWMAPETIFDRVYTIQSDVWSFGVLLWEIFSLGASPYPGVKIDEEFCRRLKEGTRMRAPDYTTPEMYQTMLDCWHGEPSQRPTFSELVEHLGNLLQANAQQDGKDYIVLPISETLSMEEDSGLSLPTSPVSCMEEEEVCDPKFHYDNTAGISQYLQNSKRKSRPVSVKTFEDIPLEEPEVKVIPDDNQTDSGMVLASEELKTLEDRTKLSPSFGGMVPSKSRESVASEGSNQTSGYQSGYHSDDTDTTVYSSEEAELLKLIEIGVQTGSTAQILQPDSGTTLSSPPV

[10] = molecular target: Proto-oncogene tyrosine-protein kinase receptor Ret (Homo sapiens, UniProt P07949)
[11] = molecular target: Homeodomain-interacting protein kinase 1 (Homo sapiens, UniProt Q86Z02); assay: Selectivity interaction (KinomeScan (DiscoverX)) EUB0001079a HIPK1; conditions: at 1 µM
[12] = molecular target: T3, Phosphatidylinositol 5-phosphate 4-kinase type-2 alpha (Homo sapiens) (UniProt P48426); assay: Selectivity interaction (Kinase panel (KiNativ target engagement assay in Jurkat cells)) EUB0001635a PIP4K2A; assay type: cell-based; conditions: Selectivity number of off-targets 0.0, Selectivity number of targets 233.0, Source Knowledge https://www.sciencedirect.com/science/article/pii/S2451945619300674?via%3Dihub, at 1 µM
T3 sequence (whole entry): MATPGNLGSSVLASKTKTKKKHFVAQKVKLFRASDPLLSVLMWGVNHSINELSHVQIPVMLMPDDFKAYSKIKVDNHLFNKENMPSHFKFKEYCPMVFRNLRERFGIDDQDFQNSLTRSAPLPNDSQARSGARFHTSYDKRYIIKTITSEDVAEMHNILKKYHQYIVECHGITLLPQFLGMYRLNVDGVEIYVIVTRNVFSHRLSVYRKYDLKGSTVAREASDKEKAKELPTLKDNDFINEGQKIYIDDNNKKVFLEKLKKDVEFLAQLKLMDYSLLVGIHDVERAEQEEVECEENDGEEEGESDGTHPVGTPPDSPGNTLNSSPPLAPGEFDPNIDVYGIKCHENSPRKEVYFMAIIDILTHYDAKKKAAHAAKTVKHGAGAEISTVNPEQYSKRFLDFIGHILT

Chain of Ephrin type-A receptor 4 (P54764 whole entry): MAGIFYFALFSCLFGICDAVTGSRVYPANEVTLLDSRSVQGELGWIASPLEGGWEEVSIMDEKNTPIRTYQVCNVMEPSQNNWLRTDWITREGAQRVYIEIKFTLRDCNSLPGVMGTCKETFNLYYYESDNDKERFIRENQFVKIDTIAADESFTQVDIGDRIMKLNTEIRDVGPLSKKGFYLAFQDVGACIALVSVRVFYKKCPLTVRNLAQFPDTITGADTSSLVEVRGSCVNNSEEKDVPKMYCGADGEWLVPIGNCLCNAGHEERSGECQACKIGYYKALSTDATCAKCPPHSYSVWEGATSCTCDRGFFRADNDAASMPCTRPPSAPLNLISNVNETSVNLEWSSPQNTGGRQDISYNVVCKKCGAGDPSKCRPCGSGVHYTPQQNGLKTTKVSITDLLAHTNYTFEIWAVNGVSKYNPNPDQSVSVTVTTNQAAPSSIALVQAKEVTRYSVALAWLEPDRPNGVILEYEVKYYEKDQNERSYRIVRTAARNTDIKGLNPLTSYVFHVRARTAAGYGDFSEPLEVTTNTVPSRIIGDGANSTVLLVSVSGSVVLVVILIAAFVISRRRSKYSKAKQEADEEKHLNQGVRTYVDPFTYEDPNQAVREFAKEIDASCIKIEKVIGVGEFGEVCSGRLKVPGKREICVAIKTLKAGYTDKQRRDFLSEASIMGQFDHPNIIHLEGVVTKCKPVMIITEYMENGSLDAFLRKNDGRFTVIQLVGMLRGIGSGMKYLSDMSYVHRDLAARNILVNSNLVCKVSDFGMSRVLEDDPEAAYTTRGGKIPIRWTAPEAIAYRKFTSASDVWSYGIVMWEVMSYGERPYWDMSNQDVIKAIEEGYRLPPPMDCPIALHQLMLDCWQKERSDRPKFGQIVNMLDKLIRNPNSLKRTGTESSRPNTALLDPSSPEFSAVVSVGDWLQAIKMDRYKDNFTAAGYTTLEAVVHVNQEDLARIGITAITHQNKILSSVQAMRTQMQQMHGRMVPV

SMILES: O=C(NOC[C@H](O)CO)c1ccc(F)c(F)c1Nc1ccc(I)cc1F
% of control [1]: 100%

SMILES: CNC(=O)Nc1ccc(-c2nc(N3CC4CCC(C3)O4)c3cnn(C4CCC5(CC4)OCCO5)c3n2)cc1
% of inhibition [2]: 8%

pXC50 [3]: < 4 M
SMILES: CCn1c(-c2nc3cc(C(=O)N4CCCC(N)C4)ccc3n2C)cc2ccccc21 (configuration not stated)

% of control [4]: 100% | % of control [5]: 6%
SMILES: CCN(CC)CCCCNc1ncc2cc(-c3cc(OC)cc(OC)c3)c(NC(=O)NC(C)(C)C)nc2n1

% of inhibition [6]: 6.6%
SMILES: CC[C@@H]1[C@H](F)C(=O)N[C@@H]1COc1nccc2cc(C(N)=O)c(OC)cc12 [ZIMLOVISERTIB]

SMILES: COCC(=O)NC/C=C/c1ccc2ncnc(Nc3ccc(Oc4ccc(C)nc4)c(C)c3)c2c1 [CP-724714]
% of control [7]: 75%

SMILES: CN(C)C/C=C/C(=O)Nc1ccc(C(=O)N2CCCC(Nc3ncc(Cl)c(-c4c[nH]c5ccccc45)n3)C2)cc1 (configuration not stated)
% of control [8]: 100% | % of control [9]: 86%

IC50 [10]: > 10 µM
SMILES: CCc1cccc(CC)c1NC(=O)c1nn(C)c2c1CCc1cnc(Nc3ccc(C(=O)NC4CCN(C)CC4)cc3OC(F)(F)F)nc1-2

SMILES: Nc1cnc(N2CCc3cc(S(=O)(=O)Nc4c(F)cc(Cl)cc4F)cc(N4CCCC4=O)c32)nc1 [TP-020n]
% of control [11]: 91%

SMILES: C=CC(=O)Nc1ccc(C(=O)Nc2[nH]nc3c2CN(C(=O)N[C@H](CN(C)C)c2ccccc2)C3(C)C)cc1
% of engagement [12]: -3.2%
